Source: patent US20240002326A1, “COMPOUNDS AND USE THEREOF IN METHODS OF TREATMENT” (The University of Queensland, priority 2016, published 2024)
Entries after “also recorded” stand apart in the source; their conditions may differ. *1 amine or outer side, *2 acyl side, *3 side chain or, on linkers, in order; H or OH if unused. Where a SMILES comes first, the peptide text is derived from it. Bridges are numbered along the chain shown (N, C = ends). Roman numbers before positions name the chains, in order. [ ]: non-standard residue; d: D form. Actinocin(9to1) = Cc1c2oc3c(C)ccc(C(=O)[*:1])c3nc-2c(C(=O)[*:2])c(N)c1=O; NMeV = CN[C@H](C(=O)O)C(C)C; Sar = CNCC(=O)O

Tests used:
[1] = system: SOX binding site consensus DNA; experiment: Direct DNA-binding assay (SPR), consensus DNA; conditions: biotinylated double-strand DNA on streptavidin chip
Procedure: (§1) Compounds were tested at a 1% v/v DMSO in HBS-EP buffer (10 mM HEPES, 150 mM NaCl, 3 mM EDTA, 0.005% v/v polysorbate 20, pH 7.4). The same buffer supplemented with 1% v/v DMSO was used as a mobile phase. DNA minor groove binder DAPI (4′,6-diamidino-2-phenylindole), DNA intercalator and minor groove binder actinomycin D, and DNA intercalator ethidium bromide were used as positive controls. Biotinylated (one tag per probe) double strand DNA probes were prepared using a standard annealing routine (5 min at 100° C., room temperature overnight and stored at −20° C.) of single strand anti-parallel DNA Probes purchased from Geneworks and were immobilized on CM5-SA streptavidin chips as per manufacturer's recommendations. […] All sample and control cycles were performed in triplicate. DMSO calibration was performed as per manufacturer's recommendations. After each injection, an extra flow system wash was performed with 50% v/v DMSO to avoid carryover. Experiments were run on a Biacore T200 (GE Healthcare, USA), with one flow cell kept as a reference.
(§2) From a molecular viewpoint, an inhibitor of SOX18-DNA binding could act either by interacting directly with the DNA, or the protein, or at the interface between protein and DNA. Binding of small molecules directly to the DNA, even though reported for other TFs (Leung et al., 2013), has the potential for unspecific DNA binding, leading to possible genotoxicity, mutagenicity, or carcinogenicity. For this reason, we developed a direct binding assays to determine whether the active compounds interact directly with DNA or protein. A surface plasmon resonance-based method was developed to analyse the binding of small molecules to biotinylated double stranded DNA immobilized on the surface of a streptavidin chip. The method measures the rate of binding (kon), dissociation (koff) and binding constant (KD), and was used to measure the binding to two different DNA sequences: SOX binding site consensus DNA, and scrambled DNA. Intercalating agents ethidium bromide and Actinomycin D, and the minor groove-binding agent 4′,6-diamino-2-phenylindole (DAPI) were used as positive controls for unselective DNA binding.

scrambled DNA = experiment: Direct DNA-binding assay (SPR), scrambled DNA; conditions: biotinylated double-strand DNA on streptavidin chip
Procedure: as §1, §2

SOX18[109] HMG fragment = SOX18[109] HMG fragment (Mus musculus (Mouse), UniProt P43680); experiment: FP DNA-binding competition assay, SOX18[109] HMG fragment; conditions: for FP bound fraction (%) 50 μM / FP bound fraction (%) 200 μM: SOX18/DNA binding
Procedure: Mouse SOX HMG fragments. The HMG domains of mouse SOX2 (Group B), SOX11 (Group C), SOX6 (Group D), SOX9 (Group E), SOX18 (Group F) and SOX15 (Group G) were BP cloned from cDNA templates (IMAGE cDNA clone IDs: Sox18: 3967084; Sox9: 5354229; Sox4: 6822618) into a pDONRTM221 pENTRY vector, sequenced and recombined into a pETG20A or a pHisMBP expression plasmid using Gateway®LR Technology (Ng et al., 2012). Constructs were transformed into Escherichia coli BL21(DE3) cells (Luria-Bertani, 100 μg/ml Ampicillin).
The DNA-binding competition assay was performed in black 384-well plates, with mouse full length SOX18, or SOX-HMG fragments. All experiments were performed using a fluorescently-labelled Prox1-DNA element. Controls consisted of free labelled DNA (low FP milli-Polarization index, mP), labelled DNA in presence of protein (negative control, high mP), and labelled DNA and protein in presence of competing excess of unlabelled DNA (positive control, low mP)
The DNA-binding competition assay was performed in 25 uL, in black 384-well plates, using either 30 mM HEPES (N-2-Hydroxyethylpiperazine-N′-2-Ethanesulfonic Acid) (pH 7.5, with 100 mM KCl, 40 mM NaCl, 10 mM NH4OAc, […], 2 mM MgCl2, 0.5 mM EDTA, 0.01% NP-40) for mouse full length SOX18, or Tris-NaCl (10 mM Tris pH 8.0 and 100 mM NaCl) for SOX-HMG fragments. All experiments were performed using a 40 bp double-stranded Prox1-DNA element with 5′ fluorescein amidite (FAM) label (Sigma Proligo or InVitrogen). Optimum binding levels were obtained at 200 nM of mouse full length SOX18 and 60 nM of SOX-HMG fragment, in presence of 5 nM labelled DNA. Controls consisted of free labelled DNA (low FP milli-Polarization index, mP), labelled DNA in presence of protein (negative control, high mP), and labelled DNA and protein in presence of 400 time competing excess of unlabelled DNA (positive control, low mP). Depending on compound, final DMSO concentrations ranged from 2 to 3.33% v/v. After mixing protein, DNA probe and compound, plates were sealed and briskly agitated in the dark for 5 minutes at room temperature, 10 minutes at 37° C., and 30 minutes at room temperature, before reading fluorescence polarization on a Tecan M1000Pro (λexc=485 nm, λem=525 nm). All experiments were performed in triplicates.
In order to pinpoint the possible binding site of the small molecules, the FP assays were repeated with a shorter, DNA-binding centred protein fragment. The DNA binding domain of SOX TFs consists of the […] amino acid long High Mobility Group (HMG) box. The 109 amino-acid long SOX18 fragment (SOX18[109]) corresponds to residues 69-177 (numbering by mouse SOX18), which includes the HMG box (residues 78-149) and N- and C-terminal flanking sequences of 9 and 28 amino-acids, respectively.

HEK293 = experiment: Cytotoxicity assay (Alamar blue), HEK293; type: cell-based; conditions: HEK293, 24 h
Procedure: Cell toxicity was determined using Alamar blue, as previously described (McMillian et al., 2002). COS-7 cells were seeded as 7000 cells per well in black wall clear bottom 96-well plates in DMEM medium (Life Technologies Australia) with 10% FBS. HepG2 and HEK293 cell lines, from ATCC, were seeded as 5000 cells per well in black wall clear bottom 384-well cell culture plates in DMEM with 1% FBS. Cells were cultured for 24 h at 37° C., 5% CO2. A serial dilution of compounds was added, with a final DMSO concentration adjusted to 0.5% v/v. Cells were incubated for another 24 h. 1 Triton X-100 was used as negative control, and 0.5% DMSO as positive control. 5 μM Alamar blue was added to each well and fluorescence was measured (λexc=560 nm, λem=590 nm) after 2 h incubation at 37° C. Data were analysed using Prism software.

HepG2 = experiment: Cytotoxicity assay (Alamar blue), HepG2; type: cell-based; conditions: HepG2, 24 h
SOX18-RBPJ interaction = SOX18-RBPJ interaction (Homo sapiens (Human), UniProt P35713); experiment: ALPHAScreen SOX18-RBPJ protein-protein interaction; type: binding
Excerpt: Proteins were genetically encoded with enhanced GFP (GFP), mCherry and cMyc (myc) tags, and cloned into cell free expression Gateway destination vectors: N-terminal GFP tagged (pCellFree_G03), N-terminal Cherry-cMyc (pCellFree_G07) and C-terminal Cherry-cMyc tagged (pCellFree_G08) (Gagoski et al., 2015). Human RBPJ (BC020780) and MEF2C (BC026341) Open Reading Frames (ORFs) were sourced from the Human ORFeome collection, version 1.1 and 5.1, and the Human Orfeome collaboration OCAA collection (Open Biosystems), as previously described (Sierecki et al., 2013) and cloned at the ARVEC facility, UQ Diamantina Institute. The entry clones pDONOR223 or pENTR201 vectors were exchanged with the ccdB gene in the expression plasmid by LR recombination (Life Technologies, Australia). The full-length human SOX18 gene was synthesized and the transfer to vectors was realized using Gateway PCR cloning. Translation competent Leishmania tarentolae extract (LTE) was prepared as previously described (Kovtun et al., 2011, Mureev et al., 2009). Protein pairs were co-expressed by adding 30 nM of GFP template plasmid and 60 nM of Cherry template plasmid to LTE and incubating for 3 hours at 27° C.
ALPHAScreen was performed as previously described (Sierecki et al., 2014, Sierecki et al., 2013). […] Percentage of interaction was calculated as: (I_cpd/I_DMSO)×100 from 3 independent experiments.
ALPHAScreen was performed as previously described (Sierecki et al., 2014, Sierecki et al., 2013), using the cMyc detection kit and Proxiplate-384 Plus plates (PerkinElmer). The LTE lysate co-expressing the proteins of interest was diluted in buffer A (25 mM HEPES, 50 mM NaCl). For the assay, 12.5 μL (0.4 μg) of Anti-cMyc coated Acceptor Beads in buffer B (25 mM HEPES, 50 mM NaCl, 0.001% NP40, 0.001% casein) were aliquoted into each well. This was followed by the addition of 2 μL of diluted sample, at different concentration, and 2 μL of biotin labeled GFP-Nanotrap in buffer A. The plates were incubated for 45 min at room temperature, then adding 2 μL (0.4 μg) of streptavidin-coated Donor Beads diluted in buffer A, and incubation in the dark for 45 min at room temperature. The ALPHAScreen signal was measured on an Envision Plate Reader (PerkinElmer), using manufacturer's recommended settings (λexc=680/30 nm for 0.18 s, λem=570/100 nm after 37 ms). The resulting bell-shaped curve is an indication of a positive interaction, while a flat line reflects a lack of interaction between the proteins. The measurement of each protein pair was repeated in triplicate.
I is the highest signal level (top of the hook effect curve) and Ineg is the lowest (background) signal level. The signals were normalized to the Iref signal obtained for the strongest interaction. […] Percentage of interaction was calculated as: […]
The ALPHA-Screen Assay was performed as previously described (Sierecki et al. 2014), using the cMyc detection kit and Proxiplate-384 Plus plates (PerkinElmer). A serial dilution of each sample was measured. The LTE lysate co-expressing the proteins of interest was diluted in buffer A (25 mM HEPES, 50 mM NaCl). For the assay, 12.5 μL (0.4 μg) of Anti-cMyc coated Acceptor Beads in buffer B (25 mM HEPES, 50 mM NaCl, 0.001% NP40, casein) were aliquoted into each well. This was followed by the addition of 2 μL of diluted sample and 2 μL of biotin labeled GFP-Nanotrap in buffer A. The plate was incubated for 45 min at RT. Afterward, 2 μL (0.4 μg) of Streptavidin coated Donor Beads diluted in buffer A, were added, followed by incubation in the dark for 45 min at RT. The ALPHA-Screen signal was obtained on an Envision Multilabel Plate Reader (PerkinElmer), using the manufacturer's recommended settings (excitation: 680/30 nm for 0.18 s, emission: 570/100 nm after 37 ms). The resulting bell-shaped curve is an indication of a positive interaction, while a flat line reflects a lack of interaction between the proteins. […]

Chain of SOX18[109] HMG fragment (P43680 69-177): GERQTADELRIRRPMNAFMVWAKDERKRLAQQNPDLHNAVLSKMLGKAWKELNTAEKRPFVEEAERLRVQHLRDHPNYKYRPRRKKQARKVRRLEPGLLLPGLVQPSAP
Chain of SOX18-RBPJ interaction (P35713 whole entry): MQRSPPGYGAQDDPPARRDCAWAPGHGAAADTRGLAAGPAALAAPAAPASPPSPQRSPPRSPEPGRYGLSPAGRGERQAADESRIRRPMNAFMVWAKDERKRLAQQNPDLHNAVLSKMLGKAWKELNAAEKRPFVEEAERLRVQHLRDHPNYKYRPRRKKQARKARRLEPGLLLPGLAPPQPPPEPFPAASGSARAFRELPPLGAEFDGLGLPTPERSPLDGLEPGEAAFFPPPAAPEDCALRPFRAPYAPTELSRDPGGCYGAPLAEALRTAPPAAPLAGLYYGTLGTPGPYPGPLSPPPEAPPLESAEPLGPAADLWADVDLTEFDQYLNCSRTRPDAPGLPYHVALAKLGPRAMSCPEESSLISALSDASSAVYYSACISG

| SMILES | binding to consensus DNA (SPR) [1] | binding to scrambled DNA (SPR) (scrambled DNA) | FP bound fraction (%) 50 μM (SOX18[109] HMG fragment) [%] | FP bound fraction (%) 200 μM (SOX18[109] HMG fragment) [%] | CC50 (HEK293) [µM] | CC50 (HepG2) [µM] | SOX18-RBPJ protein-protein binding inhibition at 5 μM (SOX18-RBPJ interaction; 5 μM) | SOX18-DNA binding inhibition (FP, words) (SOX18[109] HMG fragment; SAR library, SOX18[109]) | effect on SOX18-RBPJ interaction (PPI) (SOX18-RBPJ interaction; ALPHAScreen) |
| --- | --- | --- | --- | --- | --- | --- | --- | --- | --- |
| N=C(N)c1ccc(-c2cc3ccc(C(=N)N)cc3[nH]2)cc1 [DAPI, 4′,6-diamidino-2-phenylindole] | bind to DNA | bind to DNA | – | – | – | – | – | – | – |
| COc1cccc(C=Cc2ccc3ccccc3c2)c1C(=O)O (mixture of isomers) [Sm19, (E/Z)-2-methoxy-6-(2-(naphthalen-2-yl)vinyl)benzoic acid] | – | – | 99.2 ± 6.8 | 107.6 ± 4.5 | > 100 | > 100 | highly active | – | – |
| O=C(O)c1c(O)cccc1C=Cc1ccc2ccccc2c1 (mixture of isomers) [Sm20, (E/Z)-2-hydroxy-6-(2(naphthalen-2-yl)vinyl)benzoic acid] | – | – | 10.3 ± 4.1 | 11.9 ± 8.5 | 97.1 | 71.3 | – | displayed SOX18-DNA binding inhibiting activity; also recorded: inhibit both DNA and PPI | inhibit both DNA and PPI |
| CC[n+]1c(-c2ccccc2)c2cc(N)ccc2c2ccc(N)cc21 [ethidium bromide] | bind to DNA | bind to DNA | – | – | – | – | – | – | – |
| Cc1c2oc3c(C)ccc(C(=O)N[C@@H]4C(=O)N[C@H](C(C)C)C(=O)N5CCC[C@H]5C(=O)N(C)CC(=O)N(C)[C@@H](C(C)C)C(=O)O[C@@H]4C)c3nc-2c(C(=O)N[C@@H]2C(=O)N[C@H](C(C)C)C(=O)N3CCC[C@H]3C(=O)N(C)CC(=O)N(C)[C@@H](C(C)C)C(=O)O[C@@H]2C)c(N)c1=O [actinomycin D] (I: T[dV]P[Sar][NMeV] / II: T[dV]P[Sar][NMeV]; ester I:1-I:C, II:1-II:C; linker I:N-II:N via Actinocin(9to1)) | bind to DNA | bind to DNA | – | – | – | – | – | – | – |
